This note sets out measurements from patent US20070213339A1 (Bayer Pharmaceuticals Corporation, priority 2004, published 2007).

Each structure is given as a SMILES string.

The test has as its system Colo205 human colon carcinoma cell line. The experiment in a line: In vitro tumor cell proliferation assay (MTS, CellTiter 96 Aqueous One Solution). Format: cell-based. The note with it: COLO 205, Colo205 cells, 72 hours compound exposure, MTS absorbance at 490 nm, read-out: IC50 (concentration of test compound required to inhibit proliferation of 50% of the cells). The method, boiled down: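 Colo205 cells seeded at 2000 cells/well in RPMI-1640 with 10% serum, exposed to compound for 72 h at 37 °C, 5% CO2, in a 5-point dose-response up to 10-20 μM. Viability read by MTS absorbance at 490 nm; IC50 from background-corrected percent inhibition by linear regression.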
On to `O=C(O)c1cn(-c2cccc(CN3CCCCC3)c2)c2c(OC(F)(F)F)c(N3CCN(c4ccc(F)cc4F)CC3)c(F)cc2c1=O` [Example 142, 7-[4-(2,4-difluorophenyl)piperazin-1-yl]-6-fluoro-4-oxo-1-[3-(piperidin-1-ylmethyl)phenyl]-8-(trifluoromethoxy)-1,4-dihydroquinoline-3-carboxylic acid], for which the IC50 was 2000 to 20000 nM. As to `O=C(O)c1cn(-c2cccc(CN3CCCCC3)c2)c2c(OC(F)(F)F)c(N3CCN(c4ncccn4)CC3)c(F)cc2c1=O` [Example 143, 6-fluoro-4-oxo-1-[3-(piperidin-1-yl-methyl)phenyl]-7-(4-pyrimidin-2-ylpiperazin-1-yl)-8-(trifluoromethoxy)-1,4-dihydroquinoline-3-carboxylic acid], the IC50 is 500 to 2000 nM. The same measure for `O=C(O)c1cn(-c2cccc(CN3CCCCC3)c2)c2c(OC(F)(F)F)c(N3CCN(c4ccccc4F)CC3)c(F)cc2c1=O` [Example 144, 6-fluoro-7-[4-(2-fluorophenyl)piperazin-1-yl]-4-oxo-1-[3-(piperidin-1-ylmethyl)phenyl]-8-(trifluoromethoxy)-1,4-dihydroquinoline-3-carboxylic acid]: 2000 to 20000 nM; for `O=C(O)c1cn(-c2cccc(CN3CCCCC3)c2)c2c(OC(F)(F)F)c(N3CCN(c4cccc(Cl)c4)CC3)c(F)cc2c1=O` [Example 145, 7-[4-(3-chlorophenyl)piperazin-1-yl]-6-fluoro-4-oxo-1-[3-(piperidin-1-ylmethyl)phenyl]-8-(trifluoromethoxy)-1,4-dihydroquinoline-3-carboxylic acid]: 500 to 2000 nM; for `O=C(O)c1cn(-c2ccc(CN3CCCC3)cc2)c2c(OC(F)(F)Cl)c(N3CCN(c4ccccn4)CC3)c(F)cc2c1=O` [Example 146, 8-[chloro(difluoro)methoxy]-6-fluoro-4-oxo-7-(4-pyridin-2-ylpiperazin-1-yl)-1-[4-(pyrrolidin-1-ylmethyl)phenyl]-1,4-dihydroquinoline-3-carboxylic acid]: less than 500 nM. As to `O=C(O)c1cn(-c2ccc(CN3CCCC3)cc2)c2c(OC(F)(F)Cl)c(N3CCN(c4ccc(F)cc4)CC3)c(F)cc2c1=O` [Example 147, 8-[chloro(difluoro)methoxy]-6-fluoro-7-[4-(4-fluorophenyl)piperazin-1-yl]-4-oxo-1-[4-(pyrrolidin-1-ylmethyl)phenyl]1,4-dihydroquinoline-3-carboxylic acid], the IC50 was less than 500 nM. Consider `O=C(O)c1cn(-c2ccc(CN3CCCC3)cc2)c2c(OC(F)(F)Cl)c(N3CCN(c4ccc(Cl)cc4)CC3)c(F)cc2c1=O` [Example 148, 8-[chloro(difluoro)methoxy]-7-[4-(4-chlorophenyl)piperazin-1-yl]-6-fluoro-4-oxo-1-[4-(pyrrolidin-1-ylmethyl)phenyl]-1,4-dihydroquinoline-3-carboxylic acid], for which the IC50 is less than 500 nM. As for `N#Cc1cccnc1N1CCN(c2c(F)cc3c(=O)c(C(=O)O)cn(-c4ccc(CN5CCCC5)cc4)c3c2OC(F)(F)Cl)CC1` [Example 149, 8-[chloro(difluoro)methoxy]-7-[4-(3-cyanopyridin-2-yl)piperazin-1-yl]-6-fluoro-4-oxo-1-[4-(pyrrolidin-1-ylmethyl)-phenyl]-1,4-dihydroquinoline-3-carboxylic acid], the IC50 was less than 500 nM. Turning to `Cc1ccc(N2CCN(c3c(F)cc4c(=O)c(C(=O)O)cn(-c5ccc(CN6CCCC6)cc5)c4c3OC(F)(F)Cl)CC2)c(C)c1` [Example 150, 8-[chloro(difluoro)methoxy]-7-[4-(2,4-dimethylphenyl)piperazin-1-yl]-6-fluoro-4-oxo-1-[4-(pyrrolidin-1-ylmethyl)phenyl]-1,4-dihydroquinoline-3-carboxylic acid], the IC50 is 500 to 2000 nM.

Turning to `Cc1ccc(N2CCN(c3c(F)cc4c(=O)c(C(=O)O)cn(-c5ccc(CN6CCCC6)cc5)c4c3OC(F)(F)Cl)CC2)cc1C` [Example 151, 8-[chloro(difluoro)methoxy]-7-[4-(3,4-dimethylphenyl)piperazin-1-yl]-6-fluoro-4-oxo-1-[4-(pyrrolidin-1-ylmethyl)phenyl]-1,4-dihydroquinoline-3-carboxylic acid], the IC50 is less than 500 nM.
